Experimental findings from US6489324B2, “Piperazine compounds as inhibitors of MMP or TNF” (Fujisawa Pharmaceutical Co., Ltd., priority 1996, dated 2002) are described below.

Each structure is given as a SMILES string.

Usually melting point stands for the temperature of the solid-liquid transition.

System in the first data set: not given
Experiment: not given
Settings: not given
`CS(=O)(=O)N1CCN(S(=O)(=O)c2ccc(-c3cccs3)cc2)[C@@H](C(=O)NOC2CCCCO2)C1` (stereo partly drawn) [Example 61, (2R)-4-Methanesulfonyl-1-[4-(thiophen-2-yl)benzenesulfonyl]-N-(2-tetrahydropyranyloxy)-2-piperazinecarboxamide] came in with a melting point of 194 to 195 °C.
The same measure, in the same setting: in the case of `O=C(NO)[C@H]1CN(S(=O)(=O)CCc2ccccn2)CCN1S(=O)(=O)c1ccc(-c2ccccc2)s1` [Example 106, (2R)-N-Hydroxy-1-(5-phenylthiophene-2-sulfonyl)-4-[2-(2-pyridyl)-ethanesulfonyl]-2-piperazinecarboxamide] it was 170 to 174 °C.
The same measure, in the same setting: in the case of `O=C(NO)[C@H]1CN(C(=O)Nc2ccccc2)CCN1S(=O)(=O)c1ccc(-c2ccc(F)cc2)s1` [Example 108, (2R)-1-[5-(4-Fluorophenyl)thiophene-2-sulfonyl]-N-hydroxy-4-[(N-phenyl)aminocarbonyl]-2-piperazinecarboxamide] it was 187 to 188 °C; in that of `O=C(NO)[C@H]1CN(C(=O)NC2CCCCC2)CCN1S(=O)(=O)c1ccc(-c2ccc(F)cc2)s1` [Example 109, (2R)-4-[(N-Cyclohexyl)aminocarbonyl]-1-[5-(4-fluorophenyl)-thiophene-2-sulfonyl]-N-hydroxy-2-piperazinecarboxamide], 111 to 123 °C; in that of `O=C(NO)[C@H]1CN(S(=O)(=O)c2ccc(-c3ccon3)s2)CCN1S(=O)(=O)c1ccc(-c2ccccc2)s1` [Example 139, (2R)-N-Hydroxy-4-[5-(isoxazol-3-yl)thiophene-2-sulfonyl]1-(5-phenylthiophene-2-sulfonyl)-2-piperazinecarboxamide], 204 °C.
The same measure, in the same setting: in the case of `CCN(C)S(=O)(=O)[C@@]1(C(=O)NO)CNCCN1S(=O)(=O)c1ccc(-c2ccc(Cl)cc2)s1` [Example 162, (2R)-1-[5-(4-Chlorophenyl)thiophene-2-sulfonyl]-N-hydroxy-2-(N-methylethylaminosulfonyl)-2-piperazinecarboxamide] it was 170 to 172 °C.
Take `CN(C)S(=O)(=O)N1CCN(S(=O)(=O)c2ccc(-c3ccc(CC#N)cc3)s2)[C@@H](C(=O)NO)C1` [Example 173, (2R)-1-[5-(4-Cyanomethylphenyl)thiophene-2-sulfonyl)-4-(N,N-dimethylaminosulfonyl)-N-hydroxy-2-piperazinecarboxamide]: the melting point lay in the range of 170 to 172 °C.
Same read-out and setting: the result for `CN(C)S(=O)(=O)N1CCN(S(=O)(=O)c2ccc(Oc3ccccc3)cc2)[C@@H](C(=O)NO)C1` [Example 176, (2R)-4-(N,N-Dimethylaminosulfonyl)-N-hydroxy-1-(4-phenoxybenzenesulfonyl)-2-piperazinecarboxamide] reads 153 to 155 °C; that for `CS(=O)(=O)NCCS(=O)(=O)N1CCN(S(=O)(=O)c2ccc(-c3ccc(C(F)(F)F)cc3)s2)[C@@H](C(=O)NO)C1` [Example 181, (2R)-N-Hydroxy-4-(2-(methanesulfonylamino)ethanesulfonyl]-1-[5-(4-trifluoromethylphenyl)thiophene-2-sulfonyl]-2-piperazinecarboxamide], 105 to 108 °C.
With `CS(=O)(=O)NCCS(=O)(=O)N1CCN(S(=O)(=O)c2ccc(-c3ccc(Cl)cc3)s2)[C@@H](C(=O)NO)C1` [Example 182, (2R)-1-[5-(4-Chlorophenyl)thiophene-2-sulfonyl]-N-hydroxy-4-[2-(methanesulfonylamino)ethanesulfonyl]-2-piperazinecarboxamide], the melting point was in the range of 118 to 122 °C.
Still for that read-out and setting: the result for `CS(=O)(=O)N1CCN(S(=O)(=O)/C=C/c2ccccc2)[C@@H](C(=O)NO)C1` [Example 189, (2R)-N-Hydroxy-1-(2-phenyl-2-trans-ethenylsulfonyl)-4-methanesulfonyl-2-piperazinecarboxamide] reads 94 to 99 °C.

For the next data set, the target named is T1, Human collagenase (Homo sapiens, UniProt P03956).
T1 construct: endogenous in cells; host or cells: human skin fibroblasts stimulated with interleukin-1β
T1 sequence (P03956 100-469): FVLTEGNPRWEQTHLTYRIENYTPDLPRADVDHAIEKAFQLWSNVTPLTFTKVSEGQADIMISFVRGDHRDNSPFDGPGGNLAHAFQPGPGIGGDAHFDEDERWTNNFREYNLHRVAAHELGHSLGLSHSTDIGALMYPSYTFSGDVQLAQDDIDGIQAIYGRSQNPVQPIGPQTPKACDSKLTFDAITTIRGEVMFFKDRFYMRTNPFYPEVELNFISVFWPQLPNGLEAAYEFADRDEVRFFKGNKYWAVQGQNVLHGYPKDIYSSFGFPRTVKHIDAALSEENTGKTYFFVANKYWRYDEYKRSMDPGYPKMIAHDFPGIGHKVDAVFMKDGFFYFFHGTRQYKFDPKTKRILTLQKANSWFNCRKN
In words: Inhibitory Activity of Collagenase. The data set is classed as biochemical. Particulars: at 1 × 10^−6M; activated collagenase from human skin fibroblast culture medium, FTTC-labeled calf skin type I collagen, 37° C., 120 minutes. As for the experimental part:
Human collagenase was prepared from the culture medium of human skin fibroblast stimulated with interleukin-1β (1 ng/ml). Latent collagenase was activated by incubation with trypsin (200 μg/ml) at 37° C. for 60 minutes and the reaction was stopped by adding soybean trypsin inhibitor (800 μg/ml). Collagenase activity was determined using FTTC-labeled calf skin type I collagen. FTTC-collagen (2.5 mg/ml) was incubated at 37° C. for 120 minutes with the activated collagenase and test compound in 50 mM Tris buffer (containing 5 mM CaCl2, 200 mM NaCl and 0.02% NaN3, pH 7.5). After stopping the enzyme reaction by adding the equal volume of 70% ethanol-200 mM Tris buffer (pH 9.5), the reaction mixture was centrifuged, and collagenase activity was estimated by measuring the fluorescence intensity of supernatant at 495 nm (excitation) and 520 nm (emission).
Turning to `CS(=O)(=O)N1CCN(S(=O)(=O)c2ccc([N+](=O)[O-])cc2)[C@@H](C(=O)NO)C1` [Example 5, (2R)-1-(4-nitrobenzenesulfonyl)-4-methanesulfonylpiperazine-2-(N-hydroxy)carboxamide], the Inhibitory activity is reported as 95.3% at 1 × 10^−6M.
